Source: US11795150B2, “Synthesis of triethylenetetramines” (Philera New Zealand Limited, priority 2004, dated 2023)

settings: 80° C. for nine days

Structure (SMILES) | Changes in IR, 1H-NMR and DSC after heat exposure
NCCNCCNCCN.O=C(O)/C=C/C(=O)O.O=C(O)/C=C/C(=O)O.O=C(O)/C=C/C(=O)O.O=C(O)/C=C/C(=O)O [Fumaric, triethylenetetramine tetrafumarate] | no changes
NCCNCCNCCN.O=C(O)/C=C\C(=O)O.O=C(O)/C=C\C(=O)O.O=C(O)/C=C\C(=O)O.O=C(O)/C=C\C(=O)O [Maleic, triethylenetetramine tetramaleate] | no changes
NCCNCCNCCN.O=C(O)CCC(=O)O.O=C(O)CCC(=O)O [Succinic, triethylenetetramine disuccinate] | no changes
